Results: publication PMC9134086, “Inhibition of Dipeptidyl Peptidase-4 by Flavonoids: Structure–Activity Relationship, Kinetics and Interaction Mechanism” (Frontiers in Nutrition, 2022)
Where “and” joins values, the source holds several entries; their conditions need not be identical. Equal entries are not always repeated.

Tests used:
[1] = target: T1, DPP-4 (human recombinant) (Homo sapiens, UniProt P27487); assay: In vitro assay for DPP-4 inhibitory activity (fluorescence, Gly-Pro-AMC); assay type: biochemical; details: for inhibition at 200 µM / % Inhibition at 200μM: flavonoid 200 μM, mean ± SD, three independent experiments; for inhibition at 200 µM: read-out: % Inhibition at 200μM; for IC50: DPP-4 inhibition, fluorescence method;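 for all read-outs here: fluorescence of released AMC (excitation 360 nm, emission 460 nm) followed kinetically over 30 min at 37 °C in Tris-HCl pH 8.0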
T1 construct: purchased Sigma Aldrich D3446
T1 sequence (P27487 whole entry): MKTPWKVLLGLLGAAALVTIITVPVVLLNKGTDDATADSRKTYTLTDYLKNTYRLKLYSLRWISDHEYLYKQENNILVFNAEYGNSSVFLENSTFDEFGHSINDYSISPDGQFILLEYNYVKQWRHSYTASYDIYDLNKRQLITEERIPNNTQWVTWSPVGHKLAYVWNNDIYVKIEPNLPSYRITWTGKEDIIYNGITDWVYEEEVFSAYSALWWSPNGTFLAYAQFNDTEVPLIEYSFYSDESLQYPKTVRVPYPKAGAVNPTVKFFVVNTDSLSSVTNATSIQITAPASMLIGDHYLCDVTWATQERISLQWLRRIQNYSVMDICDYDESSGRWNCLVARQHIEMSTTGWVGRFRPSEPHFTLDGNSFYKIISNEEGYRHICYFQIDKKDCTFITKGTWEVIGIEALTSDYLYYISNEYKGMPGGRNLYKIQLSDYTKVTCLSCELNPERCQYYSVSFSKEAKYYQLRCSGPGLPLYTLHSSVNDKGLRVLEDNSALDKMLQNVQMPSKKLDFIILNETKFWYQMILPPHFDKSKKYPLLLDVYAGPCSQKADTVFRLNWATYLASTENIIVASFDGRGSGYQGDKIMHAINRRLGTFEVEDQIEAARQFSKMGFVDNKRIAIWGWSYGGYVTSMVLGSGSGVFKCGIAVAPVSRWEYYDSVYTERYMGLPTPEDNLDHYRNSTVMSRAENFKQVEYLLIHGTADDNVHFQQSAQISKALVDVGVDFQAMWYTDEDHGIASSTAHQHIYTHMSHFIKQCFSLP

DPP-4 [2] = test system: DPP-4; set-up: method as in PMID 31441917; details: test concentration of 200 μM; cited from earlier work
[3] = target: T1, DPP-4 (human recombinant); assay: Inhibition kinetic analysis (V vs [DPP-4], Lineweaver-Burk, Dixon and Cornish-Bowden plots); assay type: biochemical; details: for Kiu (uncompetitive inhibition constant): Cornish-Bowden equation; for Inhibition type: Lineweaver-Burk, Dixon and Cornish-Bowden plots, Gly-Pro-AMC 50–200 μM, DPP-4 0.42 mU/mL; for reversibility of the inhibition: plots of V vs [DPP-4] 0.21–0.84 mU/mL, 200 μM Gly-Pro-AMC; for Ki: Dixon equation, read-out: Kic (competitive inhibition constant); for 1/Kiu: reciprocal of uncompetitive inhibition constant
[4] = target: T1, DPP-4 (human recombinant); assay: Fluorescence quenching experiments (Stern-Volmer, binding constant, thermodynamic parameters); details: for Kq (quenching rate constant): τ0 10^−8 s; for ΔH (enthalpy change) / ΔS (entropy change): from Kb at 298 and 310 K;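 for all read-outs here: intrinsic DPP-4 fluorescence emission scanned 290–500 nm, corrected for flavonoid background and inner-filter absorbance, compared without versus with flavonoid quencher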
DPP-4 [5] = test system: DPP-4; set-up: method as in PMID 33063510; details: different DPP-IV inhibitor screening assay kit; cited from earlier work

Row | SMILES | inhibition at 200 µM [1] | % Inhibition at 200μM [1] | Kiu (uncompetitive inhibition constant) [3] | Inhibition type [3] | reversibility of the inhibition [3] | KSV (Stern-Volmer quenching constant) ([4]; 298 K) | n (number of binding sites) ([4]; 298 K) | ΔG (Gibbs free-energy change) ([4]; 298 K) | Kq (quenching rate constant) ([4]; 298 K) | KSV (Stern-Volmer quenching constant) ([4]; 310 K) | n (number of binding sites) ([4]; 310 K) | Kq (quenching rate constant) ([4]; 310 K) | ΔH (enthalpy change) [4] | ΔS (entropy change) [4] | IC50 [1] | Ki [3] | inhibitory percentage (DPP-4 [2]) | further results
1 | O=c1cc(-c2ccc(O)cc2)oc2cc(O)cc(O)c12 [A1, Apigenin] | 46.4 ± 1.49% | – | – | – | – | – | – | – | – | – | – | – | – | – | – | – | 44 ± 2% | –
2 | O=C1C[C@@H](c2ccc(O)cc2)Oc2cc(O)cc(O)c21 [C6, Naringenin] | < 10% | – | – | – | – | – | – | – | – | – | – | – | – | – | – | – | lower than 20% | –
3 | O=C1c2c(O)cc(O)cc2OC(c2ccc(O)c(O)c2)C1O (stereo not shown) [C8, Taxifolin] | 19.9 ± 0.65% | – | – | – | – | – | – | – | – | – | – | – | – | – | – | – | lower than 20% | –
4 | O=c1c(O[C@@H]2O[C@H](CO)[C@H](O)[C@H](O)[C@H]2O)c(-c2ccc(O)c(O)c2)oc2cc(O)cc(O)c12 [E4, Hyperoside] | > 50% | 62.10 ±0.16% | 14.8 ± 0.22 10^−5 mol L^−1 | Mixed | reversible | 4.83 ± 0.01 ×10^4 L mol^−1 | 1.04 ± 0.02 | -6.6334 kcal/mol | 4.83 ± 0.01 ×10^12 L mol^−1 s^−1 | 4.08 ± 0.01 ×10^4 L mol^−1 | 1.03 ± 0.02 | 4.08 ± 0.01 ×10^12 L mol^−1 s^−1 | -3.3815 kcal/mol | 45.66 J mol^−1K^−1 | – | – | – | ΔG (Gibbs free-energy change) ([4]; 310 K): -6.7641 kcal/mol

More lines, main results first:

Row | inhibition at 200 µM [1] | % Inhibition at 200μM [1] | Kiu (uncompetitive inhibition constant) [3] | Inhibition type [3] | reversibility of the inhibition [3] | KSV (Stern-Volmer quenching constant) ([4]; 298 K) | n (number of binding sites) ([4]; 298 K) | ΔG (Gibbs free-energy change) ([4]; 298 K) | Kq (quenching rate constant) ([4]; 298 K) | KSV (Stern-Volmer quenching constant) ([4]; 310 K) | n (number of binding sites) ([4]; 310 K) | Kq (quenching rate constant) ([4]; 310 K) | ΔH (enthalpy change) [4] | ΔS (entropy change) [4] | IC50 [1] | Ki [3] | SMILES | inhibitory percentage (DPP-4 [2]) | further results
5 | > 50% | 57.50 ±1.28% | 22.3 ± 0.15 10^−5 mol L^−1 | Mixed | reversible | 7.212 ± 0.01 ×10^4 L mol^−1 | 1.22 ± 0.02 | -8.059 kcal/mol | 7.212 ± 0.01 ×10^12 L mol^−1 s^−1 | 6.389 ± 0.01 ×10^4 L mol^−1 | 1.21 ± 0.02 | 6.389 ± 0.01 ×10^12 L mol^−1 s^−1 | -1.937 kcal/mol | 85.93 J mol^−1K^−1 | 167 µM and < 200 µM | 116 ± 2.1 µM | COc1cc(-c2oc3cc(O)cc(O)c3c(=O)c2O[C@@H]2O[C@H](CO[C@@H]3O[C@@H](C)[C@H](O)[C@@H](O)[C@H]3O)[C@@H](O)[C@H](O)[C@H]2O)ccc1O [E21, Narcissoside] | – | 1/Kic ([3]; reciprocal of competitive inhibition constant): 0.86 ± 0.02 10^4 L mol^−1; 1/Kiu [3]: 0.44 ± 0.03 10^4 L mol^−1; ΔG (Gibbs free-energy change) ([4]; 310 K): -8.305 kcal/mol
6 | 39.4 ± 0.58% | – | – | – | – | – | – | – | – | – | – | – | – | – | – | – | O=c1c(O)c(-c2ccc(O)c(O)c2)oc2cc(O)cc(O)c12 [E23, Quercetin] | 46 ± 2% | inhibitory percentage relative to rhamnetin (E27) ([1]; ratio of % inhibition at 200 μM, quercetin vs rhamnetin): 1.77 times
7 | > 50% | 68.05 ±0.15% | 18.37 ± 0.24 10^−5 mol L^−1 | Mixed | reversible | 3.64 ± 0.04 ×10^4 L mol^−1 | 1.05 ± 0.01 | -6.577 kcal/mol | 3.64 ± 0.04 ×10^12 L mol^−1 s^−1 | 3.08 ± 0.06 ×10^4 L mol^−1 | 1.04 ± 0.01 | 3.08 ± 0.06 ×10^12 L mol^−1 s^−1 | -1.971 kcal/mol | 64.68 J mol^−1K^−1 | 81.1 ± 4.14 µM | 74.3 ± 1.2 µM | OCC1OC(Oc2cc3c(O)cc(O)cc3[o+]c2-c2ccc(O)c(O)c2)C(O)C(O)C1O (stereo not shown) [F2, Cyanidin 3-O-glucoside chloride] | – | inhibitory percentage relative to cyanidin (F1) ([1]; ratio of % inhibition at 200 μM, cyanidin 3-O-glucoside vs cyanidin): 3.62 times; 1/Kiu [3]: 0.57 ± 0.03 10^4 L mol^−1; IC50 (DPP-4 [5]): 8.26 µM
8 | > 50% | – | 26.7 ± 0.34 10^−5 mol L^−1 | – | – | – | – | – | – | – | – | – | -1.901 kcal/mol | – | 150 µM and < 200 µM | 98.2 ± 3.4 µM | O=C(/C=C/c1ccc(O)cc1)c1ccc(O)cc1O [G1, Isoliquiritigenin] | – | –
